B1: IL-4: g-C family ligand (lymph/myeloid) (protein, UniProt P05112 25-153, looked up)
Interleukin-4: HKCDITLQEIIKTLNSLTEQKTLCTELTVTDIFAASKNTTEKETFCRAATVLRQFYSHHEKDTRCLGATAQQFHRHKQLIRFLKRLDRNLWGLAGLNSCPVKEANQSTLENFLERLKTIMREKYSKCSS
B2: IL-11: gp130 family ligand (Pleiotropic) (protein, UniProt P20809 22-199, looked up)
Interleukin-11: PGPPPGPPRVSPDPRAELDSTVLLTRSLLADTRQLAAQLRDKFPADGDHNLDSLPTLAMSAGALGALQLPGVLTRLRADLLSYLRHVQWLRRAGGSSLKTLEPELGTLQARLDRLLRRLQLLMSRLALPQPPPDPPAPPLAPPSSAWGGIRAAHAILGGLHLTLDWAVRGLLLLKTRL
B3: CSF-1: ligand of Receptor Tyrosine Kinases (protein, UniProt P09603 33-554, looked up)
Macrophage colony-stimulating …: EEVSEYCSHMIGSGHLQSLQRLIDSQMETSCQITFEFVDQEQLKDPVCYLKKAFLLVQDIMEDTMRFRDNTPNAIAIVQLQELSLRLKSCFTKDYEEHDKACVRTFYETPLQLLEKVKNVFNETKNLLDKDWNIFSKNCNNSFAECSSQDVVTKPDCNCLYPKAIPSSDPASVSPHQPLAPSMAPVAGLTWEDSEGTEGSSLLPGEQPLHTVDPGSAKQRPPRSTCQSFEPPETPVVKDSTIGGSPQPRPSVGAFNPGMEDILDSAMGTNWVPEEASGEASEIPVPQGTELSPSRPGGGSMQTEPARPSNFLSASSPLPASAKGQQPADVTGTALPRVGPVRPTGQDWNHTPQKTDHPSALLRDPPEPGSPRISSLRPQGLSNPSTLSAQPQLSRSHSSGSVLPLGELEGRRSTRDRRSPAEPEGGPASEGAARPLPRFNSVPLTDTGHERQSEGSFSPQLQESVFHLLVPSVILVLLAVGGLLFYRWRRRSHQEPQRADSPLEQPEGSPLTQDDRQVELPV
B4: OnM: gp130 family ligand (Pleiotropic) (protein, UniProt P13725 26-221, looked up)
Oncostatin-M: AAIGSCSKEYRVLLGQLQKQTDLMQDTSRLLDPYIRIQGLDVPKLREHCRERPGAFPSEETLRGLGRRGFLQTLNATLGCVLHRLADLEQRLPKAQDLERSGLNIEDLEKLQMARPNILGLRNNIYCMAQLLDNSDTAEPTKAGRGASQPPTPTPASDAFQRKLEGCRFLHGYHRFMHSVGRVFSKWGESPNRSRR
B5: CNTF: gp130 family ligand (Pleiotropic) (protein)
chain: MAFTEHSPLTPHRRDLCSRSIWLARKIRSDLTALTESYVKHQGLNKNINLDSADGMPVASTDQWSELTEAERLQENLQAYRTFHVLLARLLEDQQVHFTPTEGDFHQAIHTLLLQVAAFAYQIEELMILLEYKIPRNEADGMPINVGDGGLFEKKLWGLKVLQELSQWTVRSIHDLRFISSHQTGIPARGSHYIANNKKM
modifications: homo sapiens
B6: IL-7: g-C family ligand (lymphocytes) (protein, UniProt P13232 26-177, looked up)
Interleukin-7: DCDIEGKDGKQYESVLMVSIDQLLDSMKEIGSNCLNNEFNFFKRHICDANKEGMFLFRAARKLRQFLKMNSTGDFDLHLLKVSEGTTILLNCTGQVKGRKPAALGEAQPTKSLEENKSLKEQKKLNDLCFLKRLLQEIKTCWNKILMGTKEH
B7: G-CSF: gp130 family ligand (Pleiotropic) (protein, UniProt P09919 31-207, looked up)
Granulocyte …: TPLGPASSLPQSFLLKCLEQVRKIQGDGAALQEKLVSECATYKLCHPEELVLLGHSLGIPWAPLSSCPSQALQLAGCLSQLHSGLFLYQGLLQALEGISPELGPTLDTLQLDVADFATTIWQQMEELGMAPALQPTQGAMPAFASAFQRRAGGVLVASHLQSFLEVSYRVLRHLAQP
B8: IL-12: gp130 family ligand (Pleiotropic) (protein, UniProt P29459 23-219; P29460 23-328, looked up)
Interleukin-12 subunit alpha: RNLPVATPDPGMFPCLHHSQNLLRAVSNMLQKARQTLEFYPCTSEEIDHEDITKDKTSTVEACLPLELTKNESCLNSRETSFITNGSCLASRKTSFMMALCLSSIYEDLKMYQVEFKTMNAKLLMDPKRQIFLDQNMLAVIDELMQALNFNSETVPQKSSLEEPDFYKTKIKLCILLHAFRIRAVTIDRVMSYLNAS
Interleukin-12 subunit beta: IWELKKDVYVVELDWYPDAPGEMVVLTCDTPEEDGITWTLDQSSEVLGSGKTLTIQVKEFGDAGQYTCHKGGEVLSHSLLLLHKKEDGIWSTDILKDQKEPKNKTFLRCEAKNYSGRFTCWWLTTISTDLTFSVKSSRGSSDPQGVTCGAATLSAERVRGDNKEYEYSVECQEDSACPAAEESLPIEVMVDAVHKLKYENYTSSFFIRDIIKPDPPKNLQLKPLKNSRQVEVSWEYPDTWSTPHSYFSLTFCVQVQGKSKREKKDRVFTDKTSATVICRKNASISVRAQDRYYSSSWSEWASVPCS
B9: IL-10: ligand of the IFN family in the Jaks-STATs table (protein, UniProt P22301 19-178, looked up)
Interleukin-10: SPGQGTQSENSCTHFPGNLPNMLRDLRDAFSRVKTFFQMKDQLDNLLLKESLLEDFKGYLGCQALSEMIQFYLEEVMPQAENQDPDIKAHVNSLGENLKTLRLRLRRCHRFLPCENKSKAVEQVKNAFNKLQEKGIYKAMSEFDIFINYIEAYMTMKIRN

What was measured:
[1] = test system: STATS; conditions: numbers of the STATs activated; adapted from Schidler and Darnell review; cited from earlier work
[2] = test system: GAS or ISRE; conditions: element bound; adapted from Schidler and Darnell review; cited from earlier work
[3] = test system: Primary cardiomyocytes; test: Cardiac myocyte hypertrophy, cell counts in culture; assay type: cell-based; conditions: counted 48 to 72 hours post-treatment; four fields in three independent cultures, averaged
Description: (§1) Primary cardiomyocytes, primary neuronal cultures, or other cells are plated at a low density and cultured using standard culturing techniques. […] Cultures are evaluated at a point between 48 and 72 hours post-treatment by counting the number of cells in four non-overlapping fields in three independent cultures and averaging the results.

[4] = test system: primary neuronal cultures (sympathetic neuron counts); test: Neuron counts in primary neuronal cultures; assay type: cell-based; conditions: counted 48 to 72 hours post-treatment; four fields in three independent cultures, averaged
Description: as §1

Molecule	STATS [1]	GAS or ISRE [2]	No. Active Myocytes [3]	No. Neurons [4]
IL-6: gp130 family ligand (Pleiotropic)	1,3	GAS	–	–
GM-CSF: gp140 family ligand (myeloid)	5	GAS	–	–
GH: Growth hormone family ligand	5	–	–	–
PDGF	1,3	–	–	–
EGF: ligand of Receptor Tyrosine Kinases	1,3	GAS (IRF1)	–	–
IL-9: g-C family ligand (lymphocytes)	5	GAS	–	–
IL-5: gp140 family ligand (myeloid)	5	GAS	–	–
IL-13: g-C family ligand (lymphocyte)	6	GAS	–	–
CNC[C@H](O)c1cccc(O)c1 [Phenylephrine, reference compound]	–	–	92	28
IL-15: g-C family ligand	5	GAS	–	–
B1	6	GAS	–	–
B2	1,3	–	–	–
B3	1,3	GAS (not	–	–
B4	1,3	–	–	–
B5	1,3	–	–	–
B6	5	GAS	–	–
B7	1,3	–	–	–
B8	1,3	–	–	–
B9	1,3	–	–	–
